Patent US20140234227A1, “FOAM FORMULATIONS” (OTIC PHARMA LTD, priority 2011, published 2014)
Structures can show the parent of a compound that is named as a salt.

Columns and labels:
Assay in all cases: Antibiotics-Microbial Assay - Zone of Growth Inhibition
Assay type in all cases: cell-based
E. Coli (ATCC No. 8739) = details: LB-agar, 24 hrs at 37° C.
Method: (§1) In this assay the diameter (halo) of bacterial growth inhibition around filters soaked with a test item was measured and compared to a standard solution of antibiotic. For this end, sterile Microbiological cotton swabs were soaked with cultures of E. Coli (ATCC No. 8739), S. aureus (ATCC No. 6538) or of Pseudomonas aeruginosa (ATCC No. 9027) and evenly spread on top of LB-agar plates. Filters soaked with the tested formulation were placed on top of the plates and the plates were further incubated for 24 hrs. The diameter (halo) of growth inhibition around each filter was measured after 24 hrs of incubation at 37° C. A solution that contained the same concentration of Ciprofloxacin Hydrochloride (0.35%) as in the formulation tested was used as a control.

[1] = test system: Pseudomonas aeruginosa (ATCC No. 9027); details: LB-agar, 24 hrs at 37° C.
Method: as §1

[2] = test system: S. aureus (ATCC No. 6538); details: Staph. Aureus, LB-agar, 24 hrs at 37° C.
Method: as §1

With `O=C(O)c1cn(C2CC2)c2cc(N3CCNCC3)c(F)cc2c1=O` [Ciprofloxacin HCl solution (0.35%), monohydrochloride monohydrate salt of 1-cyclopropyl-6-fluoro-1,4-dihydro-4-oxo-7-(1-piperazinyl)-3-quinolinecarboxylic acid] the “diameter of growth inhibition” value (E. Coli (ATCC No. 8739)) was 3.6 cm, the “diameter of growth inhibition” value [1] was 4.85 cm and the “diameter of growth inhibition” value [2] was 4.7 cm.
